The text below walks through data of patent US20200247794A1, “PHARMACOPHORES, COMPOUNDS AND METHODS HAVING APPLICATION IN THE TREATMENT OF CANCER THROUGH INHIBITION OF CYP17A1 AND CYP19A1” (MANGOSUTHU UNIVERSITY OF TECHNOLOGY, priority 2015, published 2020).

Where two headings read alike, the source gives them in different places.

Data set [1] addresses T1, CYP17A1 (Homo sapiens, UniProt P05093).
T1 sequence (P05093 1-508): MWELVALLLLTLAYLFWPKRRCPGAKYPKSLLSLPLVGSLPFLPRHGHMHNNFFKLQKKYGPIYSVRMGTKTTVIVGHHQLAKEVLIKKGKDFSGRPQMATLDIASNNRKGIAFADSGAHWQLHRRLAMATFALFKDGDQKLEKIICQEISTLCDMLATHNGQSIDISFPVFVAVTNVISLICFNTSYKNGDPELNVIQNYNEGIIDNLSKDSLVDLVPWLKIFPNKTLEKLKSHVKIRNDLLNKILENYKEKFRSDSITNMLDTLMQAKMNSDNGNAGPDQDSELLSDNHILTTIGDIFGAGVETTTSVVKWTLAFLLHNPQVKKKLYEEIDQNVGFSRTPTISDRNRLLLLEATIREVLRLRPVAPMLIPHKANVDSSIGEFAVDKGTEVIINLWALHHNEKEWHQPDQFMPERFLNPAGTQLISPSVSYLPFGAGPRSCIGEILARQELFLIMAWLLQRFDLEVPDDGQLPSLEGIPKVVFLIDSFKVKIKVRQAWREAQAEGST
The conditions noted are these: cited from earlier work; for pIC50: −log IC50 (M), converted from literature IC50; for IC50: literature value, no unit in the table, nM.

Data set [2] has as its target T1, CYP17A1. As to the kind of experiment: CYP17A1 inhibition (CYP17A1 bactosomes, progesterone substrate, LC-MS/MS). The format is biochemical. Details: purchased Cypex, Dundee, UK; host or cells: bacterial membranes (bactosomes). The conditions noted are these: for inhibitory potency of CYP17A1 (in words): summary of Table 2; for IC50: 20 pmol/ml bactosomes, 0.1 μM progesterone, 50 μM to 50 nM.
Procedure: CYP17A1 inhibition was measured using 20 pmol/ml CYP17A1 bactosomes (Cypex, Dundee, UK) and 0.1 μM progesterone as a substrate and 1 mM NADPH in 50 mM potassium phosphate buffer pH 7.4 containing 5 mM magnesium chloride. Inhibitors were dissolved in DMSO and serially diluted in seven ½ log steps, final concentrations ranging from 50 μM to 50 nM. Reaction volume was 100 μl and final DMSO concentration was 1% (v/v). Reactions were started by the addition of NADPH and incubated at 37° C. for 20 minutes with shaking at 1800 rpm on a Bioshake IQ (Q-Instruments, Jena, Germany). Reactions were terminated by the addition of 200 μl methanol containing 1 μM tolbutamide as an internal standard.

For the next data set, the target named is T2, CYP2C19 (Homo sapiens, UniProt P33261).
T2 construct: purchased Cypex, Dundee CYP/XG001, Batch XG001001; host or cells: E. coli
As to the kind of experiment: CYP inhibition, 5 CYP bactosome mix: CYP2C19 ((S)-mephenytoin). It counts as in vitro ADME. The conditions noted are these: (S)-mephenytoin 40 μM.

The target in the next data set is T3, CYP3A4 (Homo sapiens, UniProt P08684).
T3 construct: purchased Cypex, Dundee CYP/XG001, Batch XG001001; host or cells: E. coli
As to the kind of experiment: CYP inhibition, 5 CYP bactosome mix: CYP3A4 (midazolam). It counts as in vitro ADME. The conditions noted are these: midazolam 2.5 μM.

A further data set addresses T4, CYP1A2 (Homo sapiens, UniProt P05177).
T4 construct: purchased Cypex, Dundee CYP/XG001, Batch XG001001; host or cells: E. coli
T4 sequence (P05177 1-516): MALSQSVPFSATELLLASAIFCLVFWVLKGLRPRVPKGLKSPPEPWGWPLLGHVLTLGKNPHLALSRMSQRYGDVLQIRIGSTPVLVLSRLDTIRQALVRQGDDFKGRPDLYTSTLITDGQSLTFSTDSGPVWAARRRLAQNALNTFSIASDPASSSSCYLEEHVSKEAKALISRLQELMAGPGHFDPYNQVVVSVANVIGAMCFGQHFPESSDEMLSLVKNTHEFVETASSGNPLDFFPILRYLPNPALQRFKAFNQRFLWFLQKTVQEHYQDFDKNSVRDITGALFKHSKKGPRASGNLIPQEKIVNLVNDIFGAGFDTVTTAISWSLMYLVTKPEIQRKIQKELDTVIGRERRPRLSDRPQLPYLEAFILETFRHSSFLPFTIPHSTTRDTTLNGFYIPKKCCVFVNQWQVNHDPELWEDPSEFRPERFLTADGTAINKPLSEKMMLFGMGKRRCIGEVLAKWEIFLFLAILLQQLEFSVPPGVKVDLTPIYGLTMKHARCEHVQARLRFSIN
The data set can be described thus: CYP inhibition, 5 CYP bactosome mix: CYP1A2 (tacrine). It counts as in vitro ADME. The conditions noted are these: tacrine 0.5 μM.

Data set [3] concerns CYP1A2, CYP2C9, CYP2C19, CYP2D6, and CYP3A4. The data set can be described thus: CYP inhibition against major 5 human liver CYPs (panel, summary in words). It counts as in vitro ADME. The conditions noted are these: drug-drug interaction remark.
The target of another data set is T5, CYP2C9 (Homo sapiens, UniProt P11712).
T5 construct: purchased Cypex, Dundee CYP/XG001, Batch XG001001; host or cells: E. coli
The data set can be described thus: CYP inhibition, 5 CYP bactosome mix: CYP2C9 (diclofenac). The format is in vitro ADME. The conditions noted are these: diclofenac 2 μM.

Another data set concerns the target T6, CYP2D6 (Homo sapiens, UniProt P10635).
T6 construct: purchased Cypex, Dundee CYP/XG001, Batch XG001001; host or cells: E. coli
The data set can be described thus: CYP inhibition, 5 CYP bactosome mix: CYP2D6 (bufuralol). The format is in vitro ADME. The conditions noted are these: bufuralol 10 μM.

For the next data set, the target named is T7, CYP19A1 (Homo sapiens, UniProt P11511).
T7 sequence (P11511 1-503): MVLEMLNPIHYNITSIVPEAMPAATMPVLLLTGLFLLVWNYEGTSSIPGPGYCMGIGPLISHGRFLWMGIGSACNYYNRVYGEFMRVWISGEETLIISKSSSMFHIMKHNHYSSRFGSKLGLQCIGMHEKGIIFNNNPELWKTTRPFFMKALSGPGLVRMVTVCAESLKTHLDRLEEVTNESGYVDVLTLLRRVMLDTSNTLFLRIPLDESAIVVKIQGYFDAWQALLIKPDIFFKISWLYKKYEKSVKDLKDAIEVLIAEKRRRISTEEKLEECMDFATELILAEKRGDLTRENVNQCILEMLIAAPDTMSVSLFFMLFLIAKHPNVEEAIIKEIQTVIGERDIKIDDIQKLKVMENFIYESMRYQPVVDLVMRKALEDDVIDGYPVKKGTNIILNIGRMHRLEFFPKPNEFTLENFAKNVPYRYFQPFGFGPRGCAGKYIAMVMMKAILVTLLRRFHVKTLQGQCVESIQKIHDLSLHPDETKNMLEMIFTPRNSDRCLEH
The data set can be described thus: CYP19A1 inhibition (CYP19/MFC High Throughput Inhibitor Screen Kit, fluorescence). The conditions noted are these: 7.5 pmol/ml CYP19A1, 25 μM MFC; top concentration 50 μM (acetonitrile) or 25 μM (DMSO); read-out: CYP19A1 IC50. The format is biochemical. The protocol:
Test compounds and control inhibitors were prepared as stocks in either Acetonitrile or DMSO from the solid compound. Compounds were serially diluted in ½ log steps in the same solvent.
CYP19A1 inhibition experiments were performed using the CYP19/MFC High Throughput Inhibitor Screen Kit (Corning).
CYP19A1 reactions were performed in black 96 well-plates (Greiner) according to the manufacturer's instructions. […] Final organic solvent concentrations were either 4% (v/v) acetonitrile or 0.5% (v/v) Dimethyl sulfoxide. The plates were covered with self-adhesive film lids and incubated for 10 minutes at 37° C. Reactions were terminated by the addition of 75 μl Stop Solution (100 mM Tris base in acetonitrile: MilliQ water (80:20).
Fluorescence of 7-Hydroxy-4-trifluoromethylcoumarin (HFC) was measured on a SpectraMax® i3x (Molecular Devices) using 409 nm and 530 nm as excitation and emission wavelengths, respectively.
The CYP activities for each test compound/positive control inhibitor at each concentration were converted to % of control activity (CA). The LC-MS/MS peak responses (CYP metabolite peak area/internal standard peak area) for each test compound or positive control inhibitor were used and the response for each sample was expressed as a percentage of an uninhibited control (DMSO incubation). The data were then expressed as (log(CA/100-CA) and used to generate a pseudo-Hill plot, the slope and y axis intercept are used to calculate the IC50-value according to the following equation.

T2 sequence (P33261 whole entry): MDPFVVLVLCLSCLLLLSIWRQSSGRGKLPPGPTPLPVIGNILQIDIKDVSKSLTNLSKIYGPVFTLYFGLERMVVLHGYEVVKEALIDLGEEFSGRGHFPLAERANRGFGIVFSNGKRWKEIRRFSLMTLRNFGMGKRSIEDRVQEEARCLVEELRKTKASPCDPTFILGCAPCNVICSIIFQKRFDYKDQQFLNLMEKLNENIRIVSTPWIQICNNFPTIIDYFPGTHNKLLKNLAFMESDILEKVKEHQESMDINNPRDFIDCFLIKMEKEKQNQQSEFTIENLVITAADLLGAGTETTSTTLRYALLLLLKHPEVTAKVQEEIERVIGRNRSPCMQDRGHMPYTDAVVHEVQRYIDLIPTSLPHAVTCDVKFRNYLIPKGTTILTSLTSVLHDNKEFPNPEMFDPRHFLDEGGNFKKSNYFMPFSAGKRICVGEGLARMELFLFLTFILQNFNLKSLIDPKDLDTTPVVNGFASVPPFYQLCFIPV
T5 sequence (P11712 whole entry): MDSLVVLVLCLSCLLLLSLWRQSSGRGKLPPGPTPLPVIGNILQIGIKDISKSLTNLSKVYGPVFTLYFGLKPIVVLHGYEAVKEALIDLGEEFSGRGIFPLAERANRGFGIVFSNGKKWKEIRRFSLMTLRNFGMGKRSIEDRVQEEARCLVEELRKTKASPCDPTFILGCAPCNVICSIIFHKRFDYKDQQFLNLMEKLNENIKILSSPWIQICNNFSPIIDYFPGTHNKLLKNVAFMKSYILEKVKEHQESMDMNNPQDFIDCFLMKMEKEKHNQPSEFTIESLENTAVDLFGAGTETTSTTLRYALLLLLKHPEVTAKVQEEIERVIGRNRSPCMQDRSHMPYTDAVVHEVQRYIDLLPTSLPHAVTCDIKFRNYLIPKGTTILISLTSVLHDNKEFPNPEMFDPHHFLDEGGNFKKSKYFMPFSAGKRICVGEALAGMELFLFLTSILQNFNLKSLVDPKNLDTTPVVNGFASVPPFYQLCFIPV
T3 sequence (P08684 whole entry): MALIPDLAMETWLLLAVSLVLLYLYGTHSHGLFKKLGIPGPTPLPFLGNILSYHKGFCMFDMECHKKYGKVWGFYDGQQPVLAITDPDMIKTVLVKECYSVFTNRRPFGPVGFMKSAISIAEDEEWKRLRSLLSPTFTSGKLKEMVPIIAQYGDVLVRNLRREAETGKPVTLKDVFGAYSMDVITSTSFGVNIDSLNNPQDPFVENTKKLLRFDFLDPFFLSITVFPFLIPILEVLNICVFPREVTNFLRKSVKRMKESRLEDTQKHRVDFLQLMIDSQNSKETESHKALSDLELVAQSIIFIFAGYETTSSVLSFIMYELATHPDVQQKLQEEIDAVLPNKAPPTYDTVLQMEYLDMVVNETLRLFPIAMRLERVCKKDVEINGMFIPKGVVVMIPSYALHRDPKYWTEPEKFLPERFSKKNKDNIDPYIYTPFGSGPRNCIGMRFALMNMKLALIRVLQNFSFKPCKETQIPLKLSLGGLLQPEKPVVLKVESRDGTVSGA
T6 sequence (P10635 whole entry): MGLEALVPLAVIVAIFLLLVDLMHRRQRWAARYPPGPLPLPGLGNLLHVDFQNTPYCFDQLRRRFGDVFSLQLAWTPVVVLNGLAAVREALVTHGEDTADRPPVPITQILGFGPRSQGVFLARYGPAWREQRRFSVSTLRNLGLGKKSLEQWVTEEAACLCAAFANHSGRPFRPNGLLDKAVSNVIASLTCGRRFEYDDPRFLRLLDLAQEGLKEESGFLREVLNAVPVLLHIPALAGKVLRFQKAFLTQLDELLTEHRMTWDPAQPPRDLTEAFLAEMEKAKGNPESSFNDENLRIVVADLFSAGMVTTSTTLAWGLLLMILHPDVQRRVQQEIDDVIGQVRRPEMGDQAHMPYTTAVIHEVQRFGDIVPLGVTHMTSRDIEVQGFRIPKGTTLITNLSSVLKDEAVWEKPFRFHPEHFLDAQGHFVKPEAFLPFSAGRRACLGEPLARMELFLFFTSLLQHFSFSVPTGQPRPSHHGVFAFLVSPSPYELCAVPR

As usually defined, the pIC50 is the negative decadic logarithm of the IC50, by convention in mol/L. For the molecule `O=C(NC1CC1)c1ccc2cc(C3(O)CCn4cncc43)ccc2c1` (racemic) [5bx [7]], the pIC50 on CYP17A1 [1] was 6.600.

Take `CCCC(=O)Nc1ccc(C(=O)C(C)OC(=O)c2n[nH]c3ccccc23)cc1` (racemic) [Compound 6, 1-(4-butanamidophenyl)-1-oxopropan-2-yl-1H-indazole-3-carboxylate]: the “inhibitory potency of CYP17A1 (in words)” value against CYP17A1 [2] is “micromolar levels”.

As for `CNC(=O)c1ccc2cc(C(O)(c3cnc[nH]3)C(C)C)ccc2c1` (stereo not shown) [1 [11], 6-[1-Hydroxy-1-isopropyl(1H-imidazol-5-yl)methyl]-Nmethylnaphthalene-2-carboxamide], on CYP17A1 [1], the pIC50 is 7.800.

With `Brc1ccc(Cc2ccncc2)cc1` [3g [11]], the pIC50 on CYP17A1 [1] was 6.400.

As usually defined, the IC50 is the concentration needed to halve the response being measured. Regarding `COc1ccc(-c2ccc(Cc3ccncc3)cc2)cc1OC` [9a [9], 4-[(3′,4′-Dimethoxybiphenyl-4-yl)methyl]pyridine], the IC50 at CYP17A1 [1] is 52 nM.

`Cl.Fc1ccc(-c2ccc3c(c2)CCC3c2cccnc2)cc1` (stereo not shown) [15 [13]]: the pIC50 at CYP17A1 [1] is 4.700.

In the case of `CCc1ccc(NC(=O)c2cc(C(=O)c3cc(OC)ccc3O)coc2=N)cc1` [Compound 1, N-(4-ethylphenyl)-5-(2-hydroxy-5-methoxybenzoyl)-2-imino-2H-pyran-3-carboxamide], the IC50 is 14.9 µM against CYP2C19; 14.6 µM against CYP3A4; above 50 µM on CYP17A1 [2]; 27.9 µM at CYP1A2; 6.1 µM at CYP2C9; 36.3 µM at CYP2D6. Besides, on CYP17A1 [2], the “inhibitory potency of CYP17A1 (in words)” value was “micromolar levels”. Besides, the “inhibition of metabolic CYP450 isoforms (in words)” value (“inhibition” for short) in [3] is given as “inhibit various CYP450 isoforms”.

On to `O=C(CSc1nnc(-c2c[nH]c3ccccc23)n1Cc1ccco1)NCc1ccccc1Cl` [Compound 2, N-[(2-chlorophenyl)methyl]-2-({4-[(furan-2-yl)methyl]-5-(1H-indol-3-yl)-4H-1,2,4-triazol-3-yl}sulfanyl)acetamide], for which the IC50 is 3.5 µM on CYP2C19; 1.1 µM at CYP3A4; above 50 µM against CYP17A1 [2]; 4.5 µM on CYP1A2; 1.8 µM against CYP2C9; 8.1 µM against CYP2D6. In addition, the “inhibitory potency of CYP17A1 (in words)” value at CYP17A1 [2] is given as “micromolar levels”. For the same molecule, in [3], the “inhibition” value is on record as “inhibit various CYP450 isoforms”.

With `COC(C)C(=O)Nc1cccc(NC(C(N)=O)c2ccccc2)c1` (stereo not shown) [Compound 5, N-(3-{[carbamoyl(phenyl)methyl]amino}phenyl)-2-methoxypropanamide], the IC50 at CYP2C19, against CYP3A4, against CYP1A2, on CYP2C9, on CYP19A1 and against CYP2D6 was above 50 µM in each case.

For the molecule `O=C1COc2cc(NCc3cccc(NC(=O)c4ccccc4Cl)c3)c(Cl)cc2N1` [Compound 7, 2-chloro-N-(3-{[(6-chloro-3-oxo-3,4-dihydro-2H-1,4-benzoxazin-7-yl)amino]methyl}phenyl)benzamide], the IC50 is above 50 µM on CYP2C19; 0.7 µM against CYP3A4; above 50 µM against CYP1A2; above 25 µM at CYP19A1; above 50 µM on CYP2D6. In addition, at CYP17A1 [2], the “inhibitory potency of CYP17A1 (in words)” value is reported as “micromolar levels”.

Regarding `O=C1COc2cc(NCc3cccc(C(=O)Nc4cccnc4)c3)c(O)cc2N1` [Compound 8, 3-{[(6-hydroxy-3-oxo-3,4-dihydro-2H-1,4-benzoxazin-7-yl)amino]methyl}-N-(pyridin-3-yl)benzamide], the half-maximal inhibitory concentration (IC50) is 44.6 µM against CYP2C19; 2.8 µM at CYP3A4; 2.7 µM against CYP1A2; 7.9 µM against CYP2C9; 5.9 µM on CYP19A1; above 50 µM on CYP2D6.

On to `O=C(Nc1ccccc1O)c1ccc(Oc2cccc(C(=O)Nc3ccccc3O)c2)cc1` [Compound 9, N-(2-hydroxyphenyl)-4-{3-[(2-hydroxyphenyl)carbamoyl]phenoxy}benzamide], for which the IC50 against CYP2C19, on CYP3A4, at CYP17A1 [2], against CYP1A2, on CYP2C9 and against CYP2D6 was above 50 µM throughout. Besides, the “inhibitory potency of CYP17A1 (in words)” value against CYP17A1 [2] was “micromolar levels”.

As to `O=C1COc2cc(NCc3cccc(C(=O)Nc4cccnc4)c3)ccc2N1` [Compound 10, 3-{[(3-oxo-3,4-dihydro-2H-1,4-benzoxazin-7-yl)amino]methyl}-N-(pyridin-3-yl)benzamide], the half-inhibitory concentration (IC50) was above 50 µM at CYP2C19; 6.6 µM against CYP3A4; above 50 µM against CYP17A1 [2]; 2.1 µM on CYP1A2; above 50 µM against CYP2C9; 5.7 µM on CYP19A1. Also, at CYP2D6, the 50% inhibitory concentration (IC50) was above 50 µM. For the same molecule, the “inhibitory potency of CYP17A1 (in words)” value on CYP17A1 [2] is “micromolar levels”.

As to `O=C1COc2cc(NCc3cccc(C(=O)Nc4cccnc4)c3)c(Cl)cc2N1` [Compound 13, 3-{[(6-chloro-3-oxo-3,4-dihydro-2H-1,4-benzoxazin-7-yl)amino]methyl}-N-(pyridin-3-yl)benzamide], the IC50 at CYP2C19 was above 50 µM; at CYP3A4, 1.1 µM; on CYP17A1 [2] it was above 50 µM; at CYP1A2, 0.6 µM; on CYP19A1, 14.5 µM; against CYP2D6, above 50 µM. For the same molecule, the “inhibition” value in [3] is “inhibit various CYP450 isoforms”.

As to `COc1cc2ccc([C@](O)(c3c[nH]cn3)C(C)C)cc2cc1OC` [TAK700, [(1S)-1-(6,7-dimethoxy-2-naphthyl)-1-(1H-imidazol-4-yl)-2-methylpropan-1-ol]], on CYP17A1 [1], the IC50 is 28 nM and the pIC50 is on record as 7.550.
